The source of these data is US5439933A (priority 1993, dated 1995).

Assay [1] concerns KB human epidermoid carcinoma cells. The assay is described as follows: Cell proliferation assay (cell counts), KB. It is filed as cell-based. To be noted: 72 h. On the procedure:
Tolytoxin and the other new scytophycin compounds are potent anticancer and antifungal agents. The cytotoxicity of tolytoxin and other new scytophycin compounds was determined using a cell proliferation assay, which tested the effect of the compounds on increases in cell numbers.
Cell lines were grown in plastic dishes (Falcon) in Eagle's basal medium supplemented with 5% newborn calf serum (KB), Fisher's medium supplemented with 10% horse serum (L1210), Dulbecco's modified Eagle's medium supplemented with 5% heat-inactivated fetal calf serum (LoVo), minimal essential medium supplemented with 2% heat-inactivated chicken serum (HEp-2), RPMI-1640 supplemented with 10% heat-inactivated fetal calf serum (T-47D, COLO-201) or 20% heat-inactivated fetal calf serum (HL-60, KATO-III), or McCoy's 5A supplemented with 10% heat-inactivated fetal calf serum (HBL-100). All cell culture media were supplemented with 50 μg/ml gentamycin sulfate. The cultures were incubated at 37° C. in a humidified atmosphere containing 5% carbon dioxide.
Cultures were exposed to graded concentrations of tolytoxin and reincubated for 72 hours in the presence of tolytoxin. Three dishes were used for each treatment. Cell numbers were determined by hemacytometer counts. The IC50 for each cell line was determined by plotting the logarithm of the tolytoxin concentration versus growth (cell number as a percentage of the control) of the treated cells.
The other new scytophycin compounds are also potent cytotoxins. For example, the IC50 of the scytophycins against KB human epidermoid carcinoma, LoVo human adenocarcinoma, and L1210 murine leukemia were determined using the cell proliferation assay described for tolytoxin.

Assay [2] relates to SKVLB (multi-drug resistant subline of SKOV3). The assay is described as follows: cells. It is filed as cell-based, Human.
Experimental: Human ovarian carcinoma cells (SKOV3) and a subline made multi-drug resistant by slowly increasing vinblastine in the culture medium over the course of many passages (SKVLB) were grown in Earle's basal medium (BME) containing 10% fetal calf serum. The SKVLB cells were maintained in the presence of 1 µg/mL vinblastine.
Cell proliferation was estimated by measurement of protein content of the cultured cells, as described by Skehan et al. (1990). Cells were plated into 24-well plates at approximately 10% confluency in BME and were allowed to attach and recover for at least 24 hours. The cells were then treated with the scytophycins or appropriate control for 48 hours. After the incubation, the medium was removed from each well and cells fixed by addition of 10% (w/v) trichloroacetic acid (TCA) (4° C.). The cells were incubated at 4° C. for one hour and then washed five times with water to remove TCA. The TCA-fixed cells were then stained for 30 minutes with 0.4% (w/v) sulforhodamine B prepared in 1% acetic acid. Following the staining, the cell layers were washed four times with 1% acetic acid. The cell layer was dissolved in 10 mM unbuffered tris-hydroxymethylaminomethane base. Absorbance of the solution was determined at 564 nm. Antiproliferative activity is manifested as decreased production of cellular protein.
In assay [3] the test system is Candida albicans A26. Briefly: Antifungal agar dilution. It is filed as cell-based. The conditions noted are these: Candida albicans, A26, 48 h. The procedure:
(§1) The new scytophycins are also useful as antifungal agents. Antimicrobial activity was determined by the agar dilution method. Tolytoxin was dissolved in 95% ethanol for addition to cooled, molten agar. Nystatin was solubilized in DMSO and diluted in distilled water. Appropriate solvent controls were also prepared. Fungal cultures were grown on Saboraud dextrose agar. Assay plates were incubated for 48 hours post-inoculation. Yeasts and filamentous fungi were incubated at 25° C.
(§2) Activity was determined using the method described above for tolytoxin.
On the technique in general: In agar dilution the substance is mixed into plates at graded concentrations.

Assay [4] relates to Phytophthora nicotianae H729. The assay is described as follows: Antifungal agar dilution. The format is cell-based. To be noted: Phytophthora nicotianae, 48 h. On the procedure:
as §1, §2

Assay [5] concerns Saccharomyces cerevisae. The assay is described as follows: Antifungal agar dilution. It is filed as cell-based. The conditions noted are these: Saccharomyces, 48 h. On the procedure:
as §1, §2

Assay [6] concerns Sclerotium rofsii 2133. Briefly: Antifungal agar dilution. It is filed as cell-based. The conditions noted are these: 48 h. On the procedure:
as §1, §2

The test system of assay [7] is Thielaviopsis paradoxa 1215. Briefly: Antifungal agar dilution. The format is cell-based. To be noted: Thielaviopsis paradoxa, 1215, 48 h. The procedure: as §1, §2
Assay [8] has as its system Murine leukemia (L1210) cells. The assay is described as follows: Polynucleation / DNA content by flow cytometry. To be noted: 10 nM. The format is cell-based. The procedure:
The following procedure employs new scytophycins to produce polynucleated mammalian cells. Murine leukemia (L1210) cells at a density of 1×10^5 cells/mL were treated with tolytoxin for periods ranging from 4 to 24 hours. Tolytoxin or the appropriate vehicle as a control was added in a volume of not more than 4.2 μL per 10 mL of cell suspension. The cell suspension was incubated at 37° C. in a humidified atmosphere of 95% air, 5% carbon dioxide. At the conclusion of the incubation, the cultures were chilled on ice and centrifuged at 200×g (gravity) for 10 minutes. The pelleted cells were fixed in 70% ethanol: 30% water for 1 hour. Aliquots of the fixed cell suspensions were washed twice with 0.01M phosphate buffered saline, pH 7.2-7.4. The cells were resuspended at approximately 1×10^6 /mL in modified Krishan's reagent (Krishan, 1975) containing 0.005% propidium iodide, ribonuclease A at 50 units/mL, 0.1% sodium citrate, and 0.3% Nonidet P-40. Following a 30 minute incubation at 4° C. the cell suspensions were passed 4 times through a 26-gauge needle before analysis on a Coulter Epics C flow cytometer, equipped with an Innova 90 argon laser tuned at 488 nm and set at 200 milliwatts. The fluorescence of 10,000 cells was used to generate the DNA histograms.

As a reminder, the IC50 is the concentration that inhibits the measured activity by half. A word on the MIC: it is the lowest concentration that inhibits growth of the organism. Low readings indicate a more susceptible organism, high ones a less susceptible organism.

≈ marks a conversion by molar mass, not a printed value.

For `COC1CC2C=CCC(CC(OC)C3(CO3)C(OC)CC(OC)C(C)C(C(C)C(O)C(C)CCC(=O)C(C)C(OC)C(C)/C=C/N(C)C=O)OC(=O)/C=C/C(C)=C/C1O)O2` (centres unmarked) [Tolytoxin, 6-hydroxy-7-O-methylscytophycin B], the IC50 in assay [1] came out at 5.3 nM; in assay [2] (Homo sapiens, SKVLB, 48 h, read-out: IC50 SKVLB), 25 nM. In assay [2] (Table 7, SKVLB vs SKOV3, 2880 min), this compound returned a Fold-Resistance of 1. Besides, the MIC amounted to 8 nM (≈ 6.8 ng/mL) in assay [3]; 4 nM (≈ 3.4 ng/mL) in assay [4]; 4 nM (≈ 3.4 ng/mL) in assay [5]; 1 nM (≈ 0.85 ng/mL) in assay [6]; 1 nM (≈ 0.85 ng/mL) in assay [7]. Also, the “multinucleated cells observed by microscopy” value in assay [8] (4 to 24 hours) was “increasing numbers of multinucleated cells”. Further, in assay [8] (4 to 24 hours), the “proportion of cells in the G2 M phase” value is listed as “gradual increase”. Also, the “fraction of the cells with DNA contents greater than 4C” value in assay [8] (by 16 hours) is “approximately 1/3”.
